From ChEMBL document CHEMBL1153031, “Evaluation of anti-inflammatory effect of synthetic 1,5-bis(4-acetoxy-3-methoxyphenyl)-1,4-pentadien-3-one, HB2” (Bioorg Med Chem, 2009)
Each block holds one compound with its values, some of them ahead of it. Activity calls are given as the source filed them. The rule behind the calls is not given here.

Key:
RAW264.7 [1] = assay: Antiinflammatory activity in mouse RAW264.7 cells assessed as inhibition of LPS-induced PGE2 production at 100 uM after 24 hrs by enzyme immunoassay; assay type: functional; conditions: RAW264.7, 24 h
Mus musculus [2] = assay: Neurotoxicity in mouse assessed as depression activity at 10 mg/kg, ip treated 15 mins before test measured after 60 seconds by rotarod test; assay type: toxicity, organism-based; parameters: dose 10 mg/kg, route intraperitoneal; conditions: in vivo, 0.25 h
Mus musculus [3] = assay: Neurotoxicity in mouse assessed as depression activity at 1 mg/kg, ip administered 15 mins before test measured after 60 seconds by rotarod test; assay type: toxicity, organism-based; parameters: dose 1 mg/kg, route intraperitoneal; conditions: in vivo, 0.25 h
[4] = Cytotoxicity against mouse RAW264.7 cells assessed as cell viability at 3 uM after 24 hrs by MTT assay; assay type: cell-based; conditions: read-out: Activity
[5] = Cytotoxicity against mouse RAW264.7 cells assessed as cell viability at 10 uM after 24 hrs by MTT assay; assay type: cell-based; conditions: read-out: Activity
Mus musculus [6] = assay: Antiinflammatory activity against bradykinin-induced paw oedema in mouse at 10 mg/kg, ip treated 30 mins before bradykinin challenge measured after 15 mins by plethysmometry analysis; assay type: functional; conditions: route intraperitoneal
Mus musculus [7] = assay: Antiinflammatory activity in mouse assessed as reduction in total cell count in peritoneal exudate during carrageenan-induced inflammation at 10 mg/kg, ip administered 30 mins before carrageenan challenge measured after 4 hrs; assay type: functional; parameters: scale not given: the % may be the effect or the level left; conditions: route intraperitoneal
Mus musculus [8] = assay: Antiinflammatory activity against bradykinin-induced paw oedema in mouse at 10 mg/kg, ip treated 30 mins before bradykinin challenge measured after 30 mins by plethysmometry analysis; assay type: functional; conditions: route intraperitoneal
Mus musculus [9] = assay: Antiinflammatory activity in mouse peritoneal cavity assessed as reduction in cell migration during carrageenan-induced inflammation at 1 mg/kg, ip administered 30 mins before carrageenan challenge measured after 4 hrs; assay type: functional, organism-based; parameters: dose 1 mg/kg
Mus musculus [10] = assay: Antiinflammatory activity against carrageenan-induced paw oedema in mouse at 10 mg/kg, ip treated 30 mins before carrageenan challenge measured after 1 hr by plethysmometry analysis; assay type: functional; conditions: route intraperitoneal
Mus musculus [11] = assay: Antiinflammatory activity in mouse assessed as neutrophil population in peritoneal exudate during carrageenan-induced inflammation at 10 mg/kg, ip administered 30 mins before carrageenan challenge measured after 4 hrs by myeloperoxidase activity assay; assay type: functional; conditions: route intraperitoneal
Mus musculus [12] = assay: Antiinflammatory activity in mouse assessed as neutrophil population in peritoneal exudate during carrageenan-induced inflammation at 1 mg/kg, ip administered 30 mins before carrageenan challenge measured after 4 hrs by myeloperoxidase activity assay; assay type: functional; conditions: route intraperitoneal
RAW264.7 [13] = assay: Reduction in LPS-induced nitric oxide production in mouse RAW264.7 cells at 3 uM after 24 hrs by Griess assay (Rvb=74.2 +/- 1.6 uM); assay type: functional
Mus musculus [14] = assay: Antinociceptive activity against formalin-induced nociception in ip dosed mouse assessed as inhibition of paw licking time administered 30 mins before formalin challenge measured after 30 mins; assay type: functional, organism-based
Mus musculus [15] = assay: Antiinflammatory activity against carrageenan-induced paw oedema in mouse at 10 mg/kg, ip treated 30 mins before carrageenan challenge measured after 2 hrs by plethysmometry analysis; assay type: functional; conditions: route intraperitoneal
Mus musculus [16] = assay: Antiinflammatory activity against carrageenan-induced paw oedema in mouse at 10 mg/kg, ip treated 30 mins before carrageenan challenge measured after 5 hrs by plethysmometry analysis; assay type: functional; conditions: route intraperitoneal
Mus musculus [17] = assay: Antiinflammatory activity in ip dosed mouse assessed as inhibition of acetic acid-induced abdominal constriction administered 30 mins before acetic acid challenge; assay type: functional, Abdomen
RAW264.7 [18] = assay: Antiinflammatory activity in mouse RAW264.7 cells assessed as inhibition of LPS-induced PGE2 production at 10 uM after 24 hrs by enzyme immunoassay; assay type: functional; conditions: RAW264.7, 24 h
Mus musculus [19] = assay: Antinociceptive activity against formalin-induced nociception in mouse assessed as inhibition of paw licking time at 10 mg/kg, ip administered 30 mins before formalin challenge measured after 30 mins relative to control; assay type: functional; conditions: route intraperitoneal
Mus musculus [20] = assay: Antiinflammatory activity against bradykinin-induced paw oedema in mouse at 10 mg/kg, ip treated 30 mins before bradykinin challenge measured after 120 mins by plethysmometry analysis; assay type: functional; conditions: route intraperitoneal
Mus musculus [21] = assay: Neurotoxicity in mouse assessed as muscular impairment at 1 mg/kg, ip administered 15 mins before test measured after 60 seconds by rotarod test; assay type: toxicity, organism-based; parameters: dose 1 mg/kg, route intraperitoneal; conditions: in vivo, 0.25 h
RAW264.7 [22] = assay: Antiinflammatory activity in mouse RAW264.7 cells assessed as inhibition of LPS-induced PGE2 production at 3 uM after 24 hrs by enzyme immunoassay; assay type: functional; conditions: RAW264.7, 24 h
Mus musculus [23] = assay: Antiinflammatory activity against carrageenan-induced paw oedema in mouse at 10 mg/kg, ip treated 30 mins before carrageenan challenge measured after 4 hrs by plethysmometry analysis; assay type: functional; conditions: route intraperitoneal
RAW264.7 [24] = assay: Reduction in LPS-induced nitric oxide production in mouse RAW264.7 cells at 10 uM after 24 hrs by Griess assay (Rvb=74.2 +/- 1.6 uM); assay type: functional
Mus musculus [25] = assay: Antiinflammatory activity in mouse assessed as neutrophil population in peritoneal exudate during carrageenan-induced inflammation at 0.1 mg/kg, ip administered 30 mins before carrageenan challenge measured after 4 hrs by myeloperoxidase activity assay; assay type: functional; conditions: route intraperitoneal
[26] = Cytotoxicity against mouse RAW264.7 cells assessed as cell viability at 1 uM after 24 hrs by MTT assay; assay type: cell-based; conditions: read-out: Activity
Mus musculus [27] = assay: Antiinflammatory activity against bradykinin-induced paw oedema in mouse at 10 mg/kg, ip treated 30 mins before bradykinin challenge measured after 60 mins by plethysmometry analysis; assay type: functional; conditions: route intraperitoneal
Mus musculus [28] = assay: Antiinflammatory activity against bradykinin-induced paw oedema in mouse at 10 mg/kg, ip treated 30 mins before bradykinin challenge measured after 240 mins by plethysmometry analysis; assay type: functional; conditions: route intraperitoneal
Mus musculus [29] = assay: Antiinflammatory activity against carrageenan-induced paw oedema in mouse at 10 mg/kg, ip treated 30 mins before carrageenan challenge measured after 6 hrs by plethysmometry analysis; assay type: functional; conditions: route intraperitoneal
Mus musculus [30] = assay: Antiinflammatory activity in mouse assessed as neutrophil population in peritoneal exudate during carrageenan-induced inflammation at 0.5 mg/kg, sc administered 4 hrs before carrageenan challenge measured after 4 hrs by myeloperoxidase activity assay; assay type: functional; conditions: route subcutaneous
RAW264.7 [31] = assay: Reduction in LPS-induced nitric oxide production in mouse RAW264.7 cells at 1 uM after 24 hrs by Griess assay (Rvb=74.2 +/- 1.6 uM); assay type: functional
Mus musculus [32] = assay: Antiinflammatory activity in mouse peritoneal cavity assessed as reduction in cell migration during carrageenan-induced inflammation at 0.1 mg/kg, ip administered 30 mins before carrageenan challenge measured after 4 hrs; assay type: functional, organism-based; parameters: dose 0.1 mg/kg
Mus musculus [33] = assay: Neurotoxicity in mouse assessed as muscular impairment at 10 mg/kg, ip administered 15 mins before test measured after 60 seconds by rotarod test; assay type: toxicity, organism-based; parameters: dose 10 mg/kg, route intraperitoneal; conditions: in vivo, 0.25 h
Mus musculus [34] = assay: Antiinflammatory activity in mouse assessed as reduction in total cell count in peritoneal exudate during carrageenan-induced inflammation at 0.5 mg/kg, sc administered 4 hrs before carrageenan challenge measured after 4 hrs; assay type: functional; parameters: scale not given: the % may be the effect or the level left; conditions: route subcutaneous
Mus musculus [35] = assay: Antiinflammatory activity against bradykinin-induced paw oedema in mouse at 1 mg/kg, ip treated 30 mins before bradykinin challenge measured after 15 mins by plethysmometry analysis; assay type: functional; conditions: route intraperitoneal
Mus musculus [36] = assay: Antiinflammatory activity against bradykinin-induced paw oedema in mouse at 1 mg/kg, ip treated 30 mins before bradykinin challenge measured after 60 mins by plethysmometry analysis; assay type: functional; conditions: route intraperitoneal
Mus musculus [37] = assay: Antiinflammatory activity against bradykinin-induced paw oedema in mouse at 1 mg/kg, ip treated 30 mins before bradykinin challenge measured after 30 mins by plethysmometry analysis; assay type: functional; conditions: route intraperitoneal
Mus musculus [38] = assay: Antiinflammatory activity against carrageenan-induced paw oedema in mouse at 1 mg/kg, ip treated 30 mins before carrageenan challenge measured after 1 hr by plethysmometry analysis; assay type: functional; conditions: route intraperitoneal
Mus musculus [39] = assay: Antiinflammatory activity against carrageenan-induced paw oedema in mouse at 1 mg/kg, ip treated 30 mins before carrageenan challenge measured after 2 hrs by plethysmometry analysis; assay type: functional; conditions: route intraperitoneal
Mus musculus [40] = assay: Antiinflammatory activity against carrageenan-induced paw oedema in mouse at 1 mg/kg, ip treated 30 mins before carrageenan challenge measured after 4 hrs by plethysmometry analysis; assay type: functional; conditions: route intraperitoneal
Mus musculus [41] = assay: Antiinflammatory activity against carrageenan-induced paw oedema in mouse at 1 mg/kg, ip treated 30 mins before carrageenan challenge measured after 5 hrs by plethysmometry analysis; assay type: functional; conditions: route intraperitoneal
Mus musculus [42] = assay: Antiinflammatory activity against bradykinin-induced paw oedema in mouse at 1 mg/kg, ip treated 30 mins before bradykinin challenge measured after 240 mins by plethysmometry analysis; assay type: functional; conditions: route intraperitoneal
Mus musculus [43] = assay: Antiinflammatory activity against carrageenan-induced paw oedema in mouse at 1 mg/kg, ip treated 30 mins before carrageenan challenge measured after 6 hrs by plethysmometry analysis; assay type: functional; conditions: route intraperitoneal
Mus musculus [44] = assay: Antiinflammatory activity against bradykinin-induced paw oedema in mouse at 1 mg/kg, ip treated 30 mins before bradykinin challenge measured after 120 mins by plethysmometry analysis; assay type: functional; conditions: route intraperitoneal

EC50 (Mus musculus [14]): 5.8 mg/kg
SMILES: COc1cc(/C=C/C(=O)/C=C/c2ccc(OC(C)=O)c(OC)c2)ccc1OC(C)=O
inhibition at 100 µM (RAW264.7 [1]): 76%
Activity (Mus musculus [2]): Non-toxic
Activity (Mus musculus [3]): Non-toxic
viability at 24 h, 3 µM [4]: > 90%
viability at 24 h, 10 µM [5]: > 90%
inhibition in vivo at 10 mg/kg (Mus musculus [6]): 4.25%
Activity (Mus musculus [7]): 50%
inhibition in vivo at 10 mg/kg (Mus musculus [8]): 3%
Activity (Mus musculus [9]): inactive
inhibition in vivo at 10 mg/kg (Mus musculus [10]): 10.8%
Activity (Mus musculus [11]): 98%
Activity (Mus musculus [12]): 98%
Activity (RAW264.7 [13]): 20 µM
inhibition in vivo at 10 mg/kg (Mus musculus [15]): 12.1%
inhibition in vivo at 10 mg/kg (Mus musculus [16]): 8.57%
inhibition (INH) (Mus musculus [17]): 82.5%
ED50 (Mus musculus [17]; Mus musculus, Abdomen, ip): 7.6 mg/kg
inhibition at 10 µM (RAW264.7 [18]): 71%
inhibition in vivo at 10 mg/kg (Mus musculus [19]): 86%
inhibition in vivo at 10 mg/kg (Mus musculus [20]): 2.5%
Activity (Mus musculus [21]): Non-toxic
inhibition at 3 µM (RAW264.7 [22]): 48%
inhibition in vivo at 10 mg/kg (Mus musculus [23]): 8.67%
Activity (RAW264.7 [24]): 3 µM
Activity (Mus musculus [25]): 98%
viability at 24 h, 1 µM [26]: > 90%
inhibition in vivo at 10 mg/kg (Mus musculus [27]): 2.8%
inhibition in vivo at 10 mg/kg (Mus musculus [28]): 2.18%
inhibition in vivo at 10 mg/kg (Mus musculus [29]): 6.57%
Activity (Mus musculus [30]): 98%
Activity (RAW264.7 [31]): 49 µM
Activity (Mus musculus [32]): inactive
Activity (Mus musculus [33]): Non-toxic
Activity (Mus musculus [34]): 20%

SMILES: COc1ccc2c(c1)c(CC(=O)O)c(C)n2C(=O)c1ccc(Cl)cc1 [INDOMETHACIN]
inhibition in vivo at 1 mg/kg (Mus musculus [35]): 5%
inhibition in vivo at 1 mg/kg (Mus musculus [36]): 2.5%
inhibition in vivo at 1 mg/kg (Mus musculus [37]): 3.5%
inhibition in vivo at 1 mg/kg (Mus musculus [38]): 12.6%
inhibition in vivo at 1 mg/kg (Mus musculus [39]): 10.8%
inhibition in vivo at 1 mg/kg (Mus musculus [40]): 7.14%
inhibition in vivo at 1 mg/kg (Mus musculus [41]): 6.28%
inhibition in vivo at 1 mg/kg (Mus musculus [42]): 1.9%
inhibition in vivo at 1 mg/kg (Mus musculus [43]): 5.66%
inhibition in vivo at 1 mg/kg (Mus musculus [44]): 2.09%

SMILES: COc1cc(/C=C/C(=O)/C=C/c2ccc(O)c(OC)c2)ccc1O
inhibition in vivo at 1 mg/kg (Mus musculus [35]): 5.04%
inhibition in vivo at 1 mg/kg (Mus musculus [36]): 3.25%
inhibition in vivo at 1 mg/kg (Mus musculus [37]): 4%
inhibition in vivo at 1 mg/kg (Mus musculus [38]): 14.6%
inhibition in vivo at 1 mg/kg (Mus musculus [39]): 22.9%
inhibition in vivo at 1 mg/kg (Mus musculus [40]): 17.4%
inhibition in vivo at 1 mg/kg (Mus musculus [41]): 15.1%
inhibition in vivo at 1 mg/kg (Mus musculus [42]): 2.2%
inhibition in vivo at 1 mg/kg (Mus musculus [43]): 10.1%
inhibition in vivo at 1 mg/kg (Mus musculus [44]): 2.5%
